# Patent publication US20070027201A1 (Wyeth, priority 2005, published 2007)
# Biological target: T1, progesterone receptor (Homo sapiens, UniProt P06401)
# T1 sequence (P06401 1-933): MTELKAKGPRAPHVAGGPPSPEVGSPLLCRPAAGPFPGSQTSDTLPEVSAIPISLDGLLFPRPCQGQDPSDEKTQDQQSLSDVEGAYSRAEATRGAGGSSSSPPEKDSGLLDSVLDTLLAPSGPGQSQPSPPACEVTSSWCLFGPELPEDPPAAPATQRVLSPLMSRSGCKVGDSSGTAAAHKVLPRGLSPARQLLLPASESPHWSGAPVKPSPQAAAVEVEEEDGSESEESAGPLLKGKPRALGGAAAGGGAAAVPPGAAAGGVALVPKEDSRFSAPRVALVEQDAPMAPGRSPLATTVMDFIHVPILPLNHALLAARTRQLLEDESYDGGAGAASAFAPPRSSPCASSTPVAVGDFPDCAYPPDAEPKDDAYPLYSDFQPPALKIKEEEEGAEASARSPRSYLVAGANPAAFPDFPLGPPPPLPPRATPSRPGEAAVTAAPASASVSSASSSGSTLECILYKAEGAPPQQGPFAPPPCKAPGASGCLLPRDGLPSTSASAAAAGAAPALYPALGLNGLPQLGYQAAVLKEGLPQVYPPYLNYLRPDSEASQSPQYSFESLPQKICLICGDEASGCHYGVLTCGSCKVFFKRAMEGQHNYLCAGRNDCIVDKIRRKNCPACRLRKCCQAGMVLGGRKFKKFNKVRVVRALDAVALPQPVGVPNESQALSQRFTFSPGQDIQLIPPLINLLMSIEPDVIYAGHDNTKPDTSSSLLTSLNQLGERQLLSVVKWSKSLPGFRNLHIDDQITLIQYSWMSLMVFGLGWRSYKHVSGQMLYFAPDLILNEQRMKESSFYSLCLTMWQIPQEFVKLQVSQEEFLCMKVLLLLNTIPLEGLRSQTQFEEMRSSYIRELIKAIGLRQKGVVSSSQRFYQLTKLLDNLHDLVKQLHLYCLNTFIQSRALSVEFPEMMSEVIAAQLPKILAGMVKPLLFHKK
# Assay: T47D alkaline phosphatase assay for progesterone receptor modulator (antagonist) activity
# Type: cell-based
# Design: endogenous in cells; host or cells: T47D cells
# Conditions: T47D cells
# Experimental: An assay was performed to identify compounds having progesterone receptor modulator activity. This assay identifies progestins or antiprogestins by determining a compound's effect on alkaline phosphatase activity in T47D cells.
# Culture medium: DMEM:F12 (1:1) (GIBCO, BRL) supplemented with 5% (v/v) charcoal stripped fetal bovine serum (not heat-inactivated), 100 U/mL penicillin, 100 μg/mL streptomycin, and 2 mM the GlutaMax® reagent (GIBCO, BRL).
# Alkaline phosphatase assay buffer: • I. 0.1M Tris-HCl, pH 9.8, containing 0.2% the Triton™ X-100 reagent • II. 0.1M Tris-HCl, pH 9.8, containing 4 mM p-nitrophenyl phosphate (Sigma).
# Frozen T47D cells are thawed in a 37° C. water bath and diluted to 280,000 cells/mL in culture medium. To each well in a 96-well plate (Falcon, Becton Dickinson Labware), 180 μL of diluted cell suspension is added.
# Twenty μL of reference or test compounds diluted in the culture medium is then added to each well. When testing for progestin antagonist activity, reference antiprogestins or test compounds are added in the presence of 1 nM progesterone. The cells are incubated at 37° C. in a 5% CO2/humidified atmosphere for 24 hours.
# For high throughput screening, one concentration of each compound will be tested at 0.3 μg/mL. Based on an average molecular weight of 300 g/mol for the compounds in the library, the concentration is approximately 1 μM. Subsequently, active compounds will be tested in dose response assays to determine EC50 and IC50.
# At the end of treatment, the medium is removed from the plate. Fifty μL of assay buffer I is added to each well. The plates are shaken in a titer plate shaker for 15 minutes. Then 150 μL of assay buffer II is added to each well. Optical density measurements are taken at 5 minute intervals for 30 minutes at a test wavelength of 405 nm.
# Analysis of dose-response data. For reference and test compounds, a dose response curve is generated for dose (x-axis) vs. the rate of enzyme reaction (slope) (y-axis). Square root-transformed data are used for analysis of variance and nonlinear dose response curve fitting for both agonist and antagonist modes. Huber weighting is used to down-weight the effects of outliers. EC50 or IC50 values are calculated from the retransformed values. The JMP® software (SAS Institute, Inc.) is used for both one-way analysis of variance and non-linear dose response analysis in both single dose and dose response studies.
# Progesterone and trimegestone are reference progestins and RU486 is the reference antiprogestin. All reference compounds are run in full dose response curves and the EC50 and IC50 values are calculated.
# In the table provided above, the IC50 values show the relative progesterone receptor antagonist activity in this assay. Lower numbers are indicative of higher potency, i.e., greater PR antagonist activity. Further, the assay has a standard deviation of about ±6.
row,Active Dose,Structure (SMILES)
1,10 µM,"CC(C)S(=O)(=O)Nc1ccc(-c2ccc(C#N)n2C)c(F)c1 [Example 44, N-[4-(5-cyano-1-methyl-1H-pyrrol-2-yl)-3-fluorophenyl]propane-2-sulfonamide]"
2,10 µM,"Cn1c(C#N)ccc1-c1ccc(NS(C)(=O)=O)cc1F [Example 40, N-[4-(5-cyano-1-methyl-1H-pyrrol-2-yl)-3-fluorophenyl]methanesulfonamide]"
3,3 µM,"Cn1c(C#N)ccc1-c1ccc(NS(C)(=O)=O)c(C#N)c1 [Example 77, N-[2-cyano-4-(5-cyano-1-methyl-1H-pyrrol-2-yl)phenyl]methanesulfonamide]"

# Same assay, conditions: T47D cells, antagonist mode in the presence of 1 nM progesterone, 24 hours
row,IC50,Structure (SMILES)
1,9.3 nM,"CC(C)S(=O)(=O)Nc1ccc(-c2ccc(C#N)n2C)c(F)c1 [Example 44, N-[4-(5-cyano-1-methyl-1H-pyrrol-2-yl)-3-fluorophenyl]propane-2-sulfonamide]"
2,~3000 nM,"Cc1ccc(S(=O)(=O)Nc2ccc(-c3ccc(C#N)n3C)cc2)cc1 [Example 22, N-[4-(5-cyano-1-methyl-1H-pyrrol-2-yl)phenyl]-4-methylbenzenesulfonamide]"
3,109 nM,"Cn1c(C#N)ccc1-c1ccc(N)cc1 [Example 1, 5-(4-aminophenyl)-1-methyl-1H-pyrrole-2-carbonitrile]"
4,78.8 nM,"CCCC(=O)Nc1ccc(-c2ccc(C#N)n2C)cc1 [Example 7, N-[4-(5-cyano-1-methyl-1H-pyrrol-2-yl)phenyl]butanamide]"
5,< 300 nM,"CC(C)c1cc(-c2ccc(C#N)n2C)ccc1NC#N [Example 32, [4-(5-cyano-1-methyl-1H-pyrrol-2-yl)-2-isopropylphenyl]cyanamide]"
6,198 nM,"Cn1c(C#N)ccc1-c1ccc(NS(C)(=O)=O)cc1C#N [Example 74, N-[3-cyano-4-(5-cyano-1-methyl-1H-pyrrol-2-yl)phenyl]methanesulfonamide]"
7,18.3 nM,"Cn1c(C#N)ccc1-c1ccc(NS(C)(=O)=O)cc1F [Example 40, N-[4-(5-cyano-1-methyl-1H-pyrrol-2-yl)-3-fluorophenyl]methanesulfonamide]"
8,124 nM,"CCS(=O)(=O)Nc1ccc(-c2ccc(C#N)n2C)c(C#N)c1 [Example 75, N-[3-cyano-4-(5-cyano-1-methyl-1H-pyrrol-2-yl)phenyl]ethanesulfonamide]"
9,28.9 nM,"Cn1c(C#N)ccc1-c1ccc(NS(C)(=O)=O)c(F)c1 [Example 26, N-[4-(5-cyano-1-methyl-1H-pyrrol-2-yl)-2-fluorophenyl]methane-sulfonamide]"
10,97.2 nM,"C=C(C)C(=O)Nc1ccc(-c2ccc(C#N)n2C)cc1 [Example 12, N-[4-(5-cyano-1-methyl-1H-pyrrol-2-yl)phenyl]-2-methylacrylamide]"
11,304 nM,"CC(C)CC(=O)Nc1ccc(-c2ccc(C#N)n2C)cc1 [Example 4, N-[4-(5-cyano-1-methyl-1H-pyrrol-2-yl)phenyl]-3-methylbutanamide]"
12,~300 nM,"CC(=O)Nc1ccc(-c2ccc(C#N)n2C)cc1 [Example 8, N-[4-(5-cyano-1-methyl-1H-pyrrol-2-yl)phenyl]acetamide]"
13,~3000 nM,"CC(C)c1ccc(S(=O)(=O)Nc2ccc(-c3ccc(C#N)n3C)cc2)cc1 [Example 20, N-[4-(5-cyano-1-methyl-1H-pyrrol-2-yl)phenyl]-4-isopropylbenzenesulfonamide]"
14,378 nM,"CC(C)COC(=O)Nc1ccc(-c2ccc(C#N)n2C)cc1 [Example 14, Isobutyl[4-(5-cyano-1-methyl-1H-pyrrol-2-yl)phenyl]carbamate]"
15,670 nM,"Cn1c(C#N)ccc1-c1ccc(NC#N)c(F)c1 [Example 34, [4-(5-cyano-1-methyl-1H-pyrrol-2-yl)-2-fluorophenyl]cyanamide]"
16,266 nM,"CCOC(=O)Nc1ccc(-c2ccc(C#N)n2C)cc1 [Example 13, Ethyl[4-(5-cyano-1-methyl-1H-pyrrol-2-yl)phenyl]carbamate]"

row,IC50,Structure (SMILES)
1,13.4 nM,"Cn1c(C#N)ccc1-c1ccc(NS(C)(=O)=O)cc1C(F)(F)F [Example 52, N-[4-(5-cyano-1-methyl-1H-pyrrol-2-yl)-3-(trifluoromethyl)phenyl]methane-sulfonamide]"
2,65.4 nM,"Cn1c(C#N)ccc1-c1ccc(N)c(F)c1 [Example 2, 5-(4-amino-3-fluorophenyl)-1-methyl-1H-pyrrole-2-carbonitrile]"
3,83.9 nM,"Cn1c(C#N)ccc1-c1ccc(NC(=O)C2CCC2)cc1 [Example 10, N-[4-(5-cyano-1-methyl-1H-pyrrol-2-yl)phenyl]cyclobutane-carboxamide]"
4,22.1 nM,"CCS(=O)(=O)Nc1cc(F)c(-c2ccc(C#N)n2C)cc1F [Example 47, N-[4-(5-cyano-1-methyl-1H-pyrrol-2-yl)-2,5-difluorophenyl]ethane-sulfonamide]"
5,16 nM,"Cn1c(C#N)ccc1-c1c(F)cc(NS(C)(=O)=O)cc1F [Example 79, N-[4-(5-cyano-1-methyl-1H-pyrrol-2-yl)-3,5-difluorophenyl]-methanesulfonamide]"
6,32.2 nM,"Cn1c(C#N)ccc1-c1ccc(NS(C)(=O)=O)c(OC(F)(F)F)c1 [Example 59, N-[4-(5-cyano-1-methyl-1H-pyrrol-2-yl)-2-(trifluoromethoxy)phenyl]methane-sulfonamide]"
7,1.5 nM,"CC(C)S(=O)(=O)Nc1ccc(-c2ccc(C#N)n2C)cc1 [Example 23, N-[4-(5-cyano-1-methyl-1H-pyrrol-2-yl)phenyl]propane-2-sulfonamide]"
8,10 nM,"CCS(=O)(=O)Nc1ccc(-c2ccc(C#N)n2C)cc1 [Example 24, N-[4-(5-cyano-1-methyl-1H-pyrrol-2-yl)phenyl]ethanesulfonamide]"
9,90.5 nM,"Cn1c(C#N)ccc1-c1ccc(NC(=O)c2ccccc2)cc1 [Example 9, N-[4-(5-cyano-1-methyl-1H-pyrrol-2-yl)phenyl]benzamide]"
10,< 300 nM,COc1cc(-c2ccc(C#N)n2C)ccc1NC#N [Example 35]
11,267 nM,"CCCCS(=O)(=O)Nc1cc(F)c(-c2ccc(C#N)n2C)cc1F [Example 49, N-[4-(5-cyano-1-methyl-1H-pyrrol-2-yl)-2,5-difluorophenyl]butane-1-sulfonamide]"
12,9.4 nM,"CCCS(=O)(=O)Nc1ccc(-c2ccc(C#N)n2C)c(C(F)(F)F)c1 [Example 54, N-[4-(5-cyano-1-methyl-1H-pyrrol-2-yl)-3-(trifluoromethyl)phenyl]propane-1-sulfonamide]"
13,168 nM,"CC(C)C(=O)Nc1ccc(-c2ccc(C#N)n2C)cc1 [Example 5, N-[4-(5-cyano-1-methyl-1H-pyrrol-2-yl)phenyl]-2-methylpropanamide]"
14,~300 nM,"Cn1c(C#N)ccc1-c1ccc(N(S(C)(=O)=O)S(C)(=O)=O)cc1 [Example 17, N-[4-(5-cyano-1-methyl-1H-pyrrol-2-yl)phenyl]-N-(methylsulfonyl)methane sulfonamide]"
15,76.7 nM,"CCC(=O)Nc1ccc(-c2ccc(C#N)n2C)cc1 [Example 6, N-[4-(5-cyano-1-methyl-1H-pyrrol-2-yl)phenyl]propanamide]"
16,35.8 nM,"CCS(=O)(=O)Nc1ccc(-c2ccc(C#N)n2C)cc1OC(F)(F)F [Example 60, N-[4-(5-cyano-1-methyl-1H-pyrrol-2-yl)-2-(trifluoromethoxy)phenyl]ethane-sulfonamide]"

# Same assay, conditions: T47D cells, at Active Dose 3000 nM
row,inhibition at 3 µM,Structure (SMILES)
1,50%,"Cn1c(C#N)ccc1-c1ccc(NS(C)(=O)=O)c(C#N)c1 [Example 77, N-[2-cyano-4-(5-cyano-1-methyl-1H-pyrrol-2-yl)phenyl]methanesulfonamide]"
